Data reported in paper PMC7004409 (PLoS Pathogens, 2020).

Experiments:
Format in all cases: biochemical
[1] = molecular target: T1, HIV-1 GagΔMA (GagΔMAΔp1Δp6) (Human immunodeficiency virus type 1 (NEW YORK-5 ISOLATE), UniProt P12493); conditions: GT25 oligo, pH 6
T1 construct: gene gag; Gag lacking MA, p1 and p6 (CA-SP1-NC); SUMO-tag purification, E. coli

[2] = molecular target: T2, HIV-2 GagΔMA (Human immunodeficiency virus type 2 (ISOLATE ROD), UniProt P04590); conditions: 50 mM Tris pH 8, 100 mM NaCl, GT25 oligo, dialysis, 22 °C
T2 construct: gene gag; Gag lacking MA; SUMO-tag purification

[3] = molecular target: T3, BIV GagΔMA (Bovine immunodeficiency virus R29, UniProt P19558); conditions: 50 mM MES pH 6.5, 100 mM NaCl, GT50 oligo, dilution, 22 °C
T3 construct: gene gag; Gag lacking MA; SUMO-tag purification

[4] = molecular target: T4, SIV GagΔMA (Simian immunodeficiency virus (MM251 ISOLATE), UniProt P05893); conditions: 50 mM Tris pH 8, 100 mM NaCl, GT25 oligo, dialysis, 22 °C
T4 construct: gene gag; Gag lacking MA; SUMO-tag purification

[5] = molecular target: T5, FIV GagΔMA (Feline immunodeficiency virus (isolate Petaluma), UniProt P16087); conditions: 50 mM Bis-Tris propane, 150 mM NaCl, GT50 oligo, dilution, 22 °C
T5 construct: gene gag; Gag lacking MA; SUMO-tag purification

Compound	fold increase of round VLPs at 10 μM [1] [fold]	VLP number with / without IP6 [2]	VLP number with / without IP6 [3]	VLP number with / without IP6 [4]	VLP number with / without IP6 [5]
O=P(O)(O)O[C@@H]1[C@@H](OP(=O)(O)O)[C@H](OP(=O)(O)O)[C@H](O)[C@H](OP(=O)(O)O)[C@H]1OP(=O)(O)O [IP5]	1000	–	–	–	–
O=P(O)(O)O[C@H]1[C@H](OP(=O)(O)O)[C@@H](OP(=O)(O)O)[C@H](OP(=O)(O)O)[C@@H](OP(=O)(O)O)[C@H]1OP(=O)(O)O [IP6]	–	in the presence of IP6, spherical VLP assembly consistent with an immature lattice was observed	in the presence of IP6, spherical VLP assembly consistent with an immature lattice was observed	in the presence of IP6, spherical VLP assembly consistent with an immature lattice was observed	in the presence of IP6, spherical VLP assembly consistent with an immature lattice was observed
